Laboratory results taken from US11052087B2, “Anti-HIV compounds” (priority 2018, dated 2021).
Values after ≈ are worked out from the molar mass of the structure shown. Read-outs that look alike come from different tables or passages of the source.

Tests used:
[1] = tested on: HIV-1 (IIIB) in MT-4 cells; test: MT-4 HIV Assay; format: cell-based
Experimental: Compounds were tested in a high-throughput 384-well assay format for their ability to inhibit the replication of HIV-1 (IIIB) in MT-4 cells. Compounds were serially diluted (1:3) in DMSO on 384-well polypropylene plates and further diluted 200-fold into complete RPMI media (10% FBS, 1% P/S) using the Biotek Micro Flow and Agilent ECHO acoustic dispenser. Each plate contained up to 8 test compounds, with negative (No Drug Control) and 5 μM AZT positive controls. MT-4 cells were pre-infected with 10 μL of either RPMI (mock-infected) or a fresh 1:250 dilution of an HIV-1 (IIIB) concentrated virus stock. Infected and uninfected MT-4 cells were further diluted in complete RPMI media and added to each plate using a Micro Flow dispenser. After 5 days incubation in a humidified and temperature controlled incubator (37° C.), Cell Titer Glo (Promega) was added to the assay plates to quantify the amount of luciferase. EC50 values were defined as the compound concentration that causes a 50% decrease in luminescence signal, and were calculated using a sigmoidal dose-response model to generate curve fits.

[2] = Kinetic Solubility Analysis (CLND); format: physicochemical; settings: 26 °C, kinetic from dmso stock
Experimental: Kinetic Solubility Analysis (CLND) Buffer Preparation:
0.1N HCl: Hydrochloric acid, 0.1N standardized solution.
1×PBS, 7.4: Phosphate Buffered Saline solution 10×, PBS 50 mL was added to approximately 450 mL HPLC grade H2O. The volume of the solution was then adjusted to 500 mL for a total dilution factor of 1:10 and a final PBS concentration of IX.
Kinetic Solubility from DMSO Stocks:
The final DMSO concentration is 1.0% and maximum theoretical compound concentration is 100 μM (assuming stock concentration of 10 mM). The filter plate was sealed. […] The collection plate was sealed for analysis. Filtrates were injected into the nitrogen detector for quantification.
The equimolar nitrogen response of the detector was calibrated using standards which spanned the dynamic range of the instrument from […] nitrogen. The filtrates were quantified with respect to this calibration curve. The calculated solubility values were corrected for background nitrogen present in the DMSO and the media used to prepare the samples.

[3] = Liver microsomal stability (rat); format: in vitro ADME; settings: rat liver microsomes 0.5 mg/mL, 1 μM compound, NADPH-regenerating system, 37° C.
Experimental: (§1) Liver Microsomal Stability Protocol
(§2) Test compounds and one control compound (verapamil) were tested in 3 different species in duplicate sets.
(§3) Test compound concentration: 1 μM; Protein concentration: 0.5 mg/mL (for rat and human liver microsomes); Cofactor: NADPH-Regenerating system (NRS) solution. Time-points: 2, 12, 25, 45, and 65 minutes.
(§4) Reaction composition (in each incubation well) contains:
(§5) At an incubation temperature of 37° C., the reaction was started with addition of NADPH Regeneration System, at each time point, 25 μL of the reaction mixture was removed and added to a plate with 225 μL quenching solution (50% MeOH, 25% ACN, 25% H2O, and 200 nM labetalol as internal standard). After plates were vortexed, they were centrifuged for 30 minutes to remove proteins. About 100 μL supernatant was removed to a new plate and diluted with 150 μL water. About 20 μL of the mixture was injected into an LC/MS/MS system to monitor the compound's response. In vitro measured t1/2 was used to calculate Clint values.

[4] = Liver microsomal stability (human); format: in vitro ADME; settings: human liver microsomes 0.5 mg/mL, 1 μM compound, NADPH-regenerating system, 37° C.
Experimental: as §1, §2, §3, §4, §5

[5] = Human immunodeficiency virus 1, MT4, 120 h, HIV-1 (IIIB) replication in MT-4 cells, 5 days incubation, Cell Titer Glo, read-out: EC50
[6] = 0.1N HCl, pH 1, simulated gastric fluid, read-out: Solubility, HCl, pH 1.0, RT
[7] = PBS, pH 7.4, aqueous buffer, read-out: Solubility, PBS, pH 7.4, RT

Row | Structure (SMILES) | EC50 [1, 5] [µM] | solubility at 24 h [2, 6] [µM] | solubility at 24 h [2, 7] [µM] | EC50 ([1]; Human immunodeficiency virus 1, IIIB, MT4, 120 h) [µM] | Rat. Pred. Cl. (L/H/kg) [3] [L/H/kg] | Human Pred Cl. (L/H/kg) [4] [L/H/kg]
1 | COC(=O)N[C@H](C(=O)N[C@@H](Cc1ccc(C#Cc2cnc(N3CC4CCC(C3)N4C3COC3)nc2)cc1)[C@H](CN(Cc1c(F)cc(-c2ccn(C(F)F)n2)cc1F)NC(=O)[C@@H](NC(=O)OC)C(C)(C)C(F)(F)F)OC(C)=O)C(C)(C)C(F)(F)F [Example 3, (5S,10S,11S,14S)-8-(4-(1-(difluoromethyl)-1H-pyrazol-3-yl)-2,6-difluorobenzyl)-11-(4-((2-(8-(oxetan-3-yl)-3,8-diazabicyclo[3.2.1]octan-3-yl)pyrimidin-5-yl)ethynyl)benzyl)-3,6,13,16-tetraoxo-5,14-bis(1,1,1-trifluoro-2-methylpropan-2-yl)-2,17-dioxa-4,7,8,12,15-pentaazaoctadecan-10-yl acetate] | 0.603 | 25.2 | < 1 | – | – | –
2 | COC(=O)N[C@H](C(=O)N[C@@H](Cc1ccc(C#Cc2cnc(N3CC4CCC(C3)N4C3COC3)nc2)cc1)[C@H](CN(Cc1c(F)cc(-c2ccn(C(F)F)n2)cc1F)NC(=O)[C@@H](NC(=O)OC)C(C)(C)C(F)(F)F)OC(=O)[C@H](C(C)C)N(C)C)C(C)(C)C(F)(F)F [Example 4, (2S,3S)-1-(1-(4-(1-(difluoromethyl)-1H-pyrazol-3-yl)-2,6-difluorobenzyl)-2-((S)-4,4,4-trifluoro-2-((methoxycarbonyl)amino)-3,3-dimethylbutanoyl)hydrazinyl)-4-(4-((2-(8-(oxetan-3-yl)-3,8-diazabicyclo[3.2.1]octan-3-yl)pyrimidin-5-yl)ethynyl)phenyl)-3-((S)-4,4,4-trifluoro-2-((methoxycarbonyl)amino)-3,3-dimethylbutanamido)butan-2-yl dimethyl-L-valinate] | 5.71 | 99.2 (≈ 127 µg/mL) | < 1 | – | – | –
3 | COC(=O)N[C@H](C(=O)N[C@@H](Cc1ccc(C#Cc2cnc(N3CC4CCC(C3)N4C3COC3)nc2)cc1)[C@H](CN(Cc1c(F)cc(-c2ccn(C(F)F)n2)cc1F)NC(=O)[C@@H](NC(=O)OC)C(C)(C)C(F)(F)F)OC(=O)CCC[N+](C)(C)C)C(C)(C)C(F)(F)F [Example 7, (5S,10S)-8-(4-(1-(difluoromethyl)-1H-pyrazol-3-yl)-2,6-difluorobenzyl)-N,N,N-trimethyl-10-((1 S)-2-(4-((2-(8-(oxetan-3-yl)-3,8-diazabicyclo[3.2.1]octan-3-yl)pyrimidin-5-yl)ethynyl)phenyl)-1-((S)-4,4,4-trifluoro-2-((methoxycarbonyl)amino)-3,3-dimethylbutanamido)ethyl)-3,6,2-trioxo-5-(1,1,1-trifluoro-2-methylpropan-2-yl)-2,11-dioxa-4,7,8-triazapentadecan-15-aminium 2,2,2-trifluoroacetate] | – | – | – | 0.247 | – | –
4 | COC(=O)N[C@H](C(=O)N[C@@H](Cc1ccc(C#Cc2cnc(N3CC4CCC(C3)N4C3COC3)nc2)cc1)[C@H](CN(Cc1c(F)cc(-c2ccn(C(F)F)n2)cc1F)NC(=O)[C@@H](NC(=O)OC)C(C)(C)C(F)(F)F)OC(=O)[C@@H](N)C(C)C)C(C)(C)C(F)(F)F [Example 8, (2S,3S)-1-(1-(4-(1-(difluoromethyl)-1H-pyrazol-3-yl)-2,6-difluorobenzyl)-2-((S)-4,4,4-trifluoro-2-((methoxycarbonyl)amino)-3,3-dimethylbutanoyl)hydrazinyl)-4-(4-((2-(8-(oxetan-3-yl)-3,8-diazabicyclo[3.2.1]octan-3-yl)pyrimidin-5-yl)ethynyl)phenyl)-3-((S)-4,4,4-trifluoro-2-((methoxycarbonyl)amino)-3,3-dimethylbutanamido)butan-2-yl L-valinate] | 0.102 | 90 (≈ 113 µg/mL) | < 1 | – | – | –
5 | COC(=O)N[C@H](C(=O)N[C@@H](Cc1ccc(C#Cc2cnc(N3CC4CCC(C3)N4C3COC3)nc2)cc1)[C@H](CN(Cc1c(F)cc(-c2ccn(C(F)F)n2)cc1F)NC(=O)[C@@H](NC(=O)OC)C(C)(C)C(F)(F)F)OC(=O)[C@@H](N)CCCCN)C(C)(C)C(F)(F)F [Example 9, (2S,3S)-1-(1-(4-(1-(difluoromethyl)-1H-pyrazol-3-yl)-2,6-difluorobenzyl)-2-((S)-4,4,4-trifluoro-2-((methoxycarbonyl)amino)-3,3-dimethylbutanoyl)hydrazinyl)-4-(4-((2-(8-(oxetan-3-yl)-3,8-diazabicyclo[3.2.1]octan-3-yl)pyrimidin-5-yl)ethynyl)phenyl)-3-((S)-4,4,4-trifluoro-2-((methoxycarbonyl)amino)-3,3-dimethylbutanamido)butan-2-yl L-lysinate] | 0.0206 | 86.8 (≈ 111 µg/mL) | 6.8 (≈ 8.73 µg/mL) | – | – | –
6 | COC(=O)N[C@H](C(=O)N[C@@H](Cc1ccc(C#Cc2cnc(N3CC4CCC(C3)N4C3COC3)nc2)cc1)[C@H](CN(Cc1c(F)cc(-c2ccn(C(F)F)n2)cc1F)NC(=O)[C@@H](NC(=O)OC)C(C)(C)C(F)(F)F)OC(=O)CN(C)C)C(C)(C)C(F)(F)F [Example 10, (2S,3S)-1-(1-(4-(1-(difluoromethyl)-1H-pyrazol-3-yl)-2,6-difluorobenzyl)-2-((S)-4,4,4-trifluoro-2-((methoxycarbonyl)amino)-3,3-dimethylbutanoyl)hydrazinyl)-4-(4-((2-(8-(oxetan-3-yl)-3,8-diazabicyclo[3.2.1]octan-3-yl)pyrimidin-5-yl)ethynyl)phenyl)-3-((S)-4,4,4-trifluoro-2-((methoxycarbonyl)amino)-3,3-dimethylbutanamido)butan-2-yl dimethylglycinate] | – | 79.3 (≈ 98.4 µg/mL) | < 1 | – | – | –
7 | COC(=O)N[C@H](C(=O)N[C@@H](Cc1ccc(C#Cc2cnc(N3CC4CCC(C3)N4C3COC3)nc2)cc1)[C@H](CN(Cc1c(F)cc(-c2ccn(C(F)F)n2)cc1F)NC(=O)[C@@H](NC(=O)OC)C(C)(C)C(F)(F)F)OP(=O)(O)O)C(C)(C)C(F)(F)F [Example 12, methyl ((5S,10S,11S,14S)-8-(4-(1-(difluoromethyl)-1H-pyrazol-3-yl)-2,6-difluorobenzyl)-16,16,16-trifluoro-15,15-dimethyl-11-(4-((2-(8-(oxetan-3-yl)-3,8-diazabicyclo[3.2.1]octan-3-yl)pyrimidin-5-yl)ethynyl)benzyl)-3,6,13-trioxo-10-(phosphonooxy)-5-(1,1,1-trifluoro-2-methylpropan-2-yl)-2-oxa-4,7,8,12-tetraazahexadecan-14-yl)carbamate] | – | 13.1 (≈ 16.2 µg/mL) | 84.6 (≈ 105 µg/mL) | – | 0.91 | 0.47
8 | COC(=O)N[C@H](C(=O)N[C@@H](Cc1ccc(C#Cc2ccc(N3CC4CCC(C3)N4C3COC3)nc2)cc1)[C@H](CN(Cc1c(F)cc(-c2ccn(C(F)F)n2)cc1F)NC(=O)[C@@H](NC(=O)OC)C(C)(C)C(F)(F)F)OC(=O)OCOP(=O)(O)O)C(C)(C)C(F)(F)F [Example 13, methyl ((5S,10S,11S,14S)-8-(4-(1-(difluoromethyl)-1H-pyrazol-3-yl)-2,6-difluorobenzyl)-16,16,16-trifluoro-15,15-dimethyl-11-(4-((6-(8-(oxetan-3-yl)-3,8-diazabicyclo[3.2.1]octan-3-yl)pyridin-3-yl)ethynyl)benzyl)-3,6,13-trioxo-10-((((phosphonooxy)methoxy)carbonyl)oxy)-5-(1,1,1-trifluoro-2-methylpropan-2-yl)-2-oxa-4,7,8,12-tetraazahexadecan-14-yl)carbamate] | – | 67.4 (≈ 88.2 µg/mL) | < 1 | – | – | –
